According to PubChem BioAssay AID248 (DTP/NCI, 2004):
Where “and” joins values, the source holds several entries; their conditions need not be identical. Identical values can stand only once. Toxic doses and inconclusive results are not listed. Rule as the data show it: active = T/C of 150% or more; inactive = T/C below 125%.

System: L1210 leukemia ip in BDF1 mice, survival T/C
Test: NCI In Vivo Anticancer Drug Screen. Data for tumor model L1210 Leukemia (intraperitoneal) in B6D2F1 (BDF1) mice
Details: endpoint: mean survival time, higher = longer survival
Summary of the method: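 Transplantable tumor model; survival measured in treated vs vehicle control mice. Value = treated/control.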

[1] = dose: 100.0 mg/kg/injection, schedule: Q04DX003 (ip), vehicle: Klucel (hydroxypropylcellulose) (HPC)
[2] = dose: 200.0 mg/kg/injection, schedule: Q04DX003 (ip), vehicle: Klucel (hydroxypropylcellulose) (HPC)
[3] = dose: 400.0 mg/kg/injection, schedule: Q04DX003 (ip), vehicle: Klucel (hydroxypropylcellulose) (HPC)
[4] = dose: 50.0 mg/kg/injection, schedule: Q01DX001 (ip), vehicle: saline
[5] = dose: 100.0 mg/kg/injection, schedule: Q01DX001 (ip), vehicle: saline
[6] = dose: 200.0 mg/kg/injection, schedule: Q01DX001 (ip), vehicle: saline
[7] = dose: 400.0 mg/kg/injection, schedule: Q01DX001 (ip), vehicle: saline
[8] = dose: 100.0 mg/kg/injection, schedule: Q04DX003 (ip), vehicle: saline
[9] = dose: 200.0 mg/kg/injection, schedule: Q04DX003 (ip), vehicle: saline
[10] = dose: 400.0 mg/kg/injection, schedule: Q04DX003 (ip), vehicle: saline

Measured: T/C

CC(=O)[O][Hg][c]1sc2ccccc2c1C
inactive: dose: 0.5 mg/kg/injection, schedule: Q01DX015 (ip), vehicle: other 106 % of control | dose: 1.0 mg/kg/injection, schedule: Q01DX015 (ip), vehicle: other 98 % of control | dose: 1.5 mg/kg/injection, schedule: Q04DX003 (ip), vehicle: saline 103 % of control | dose: 2.0 mg/kg/injection, schedule: Q01DX015 (ip), vehicle: other 98 % of control | dose: 2.12 mg/kg/injection, schedule: Q01DX009 (ip), vehicle: saline with Tween-80 98 % of control | dose: 3.0 mg/kg/injection, schedule: Q01DX001 (ip), vehicle: acetone 101 % of control | dose: 3.0 mg/kg/injection, schedule: Q04DX003 (ip), vehicle: saline 95 % of control | dose: 4.0 mg/kg/injection, schedule: Q01DX015 (ip), vehicle: other 96 % of control | dose: 4.25 mg/kg/injection, schedule: Q01DX009 (ip), vehicle: saline with Tween-80 95 % of control | dose: 6.0 mg/kg/injection, schedule: Q01DX001 (ip), vehicle: acetone 95 % of control | dose: 6.0 mg/kg/injection, schedule: Q04DX003 (ip), vehicle: saline 98 % of control | dose: 8.5 mg/kg/injection, schedule: Q01DX009 (ip), vehicle: saline with Tween-80 98 % of control | dose: 8.5 mg/kg/injection, schedule: Q04DX003 (ip), vehicle: acetone 98 % of control | dose: 12.0 mg/kg/injection, schedule: Q01DX001 (ip), vehicle: acetone 86 % of control | dose: 12.0 mg/kg/injection, schedule: Q01DX009 (ip), vehicle: saline with Tween-80 95 % of control and 88 % of control | dose: 19.0 mg/kg/injection, schedule: Q01DX009 (ip), vehicle: saline with Tween-80 92 % of control | dose: 28.0 mg/kg/injection, schedule: Q01DX009 (ip), vehicle: saline with Tween-80 106 % of control

Cc1ccc2nc(C)cc(NC(=O)c3ccccc3)c2c1
inactive: dose: 5.0 mg/kg/injection, schedule: Q01DX001 (ip), vehicle: saline 110 % of control | dose: 10.0 mg/kg/injection, schedule: Q01DX001 (ip), vehicle: saline 95 % of control | dose: 20.0 mg/kg/injection, schedule: Q01DX001 (ip), vehicle: saline 100 % of control | dose: 40.0 mg/kg/injection, schedule: Q01DX001 (ip), vehicle: saline 105 % of control | dose: 80.0 mg/kg/injection, schedule: Q01DX001 (ip), vehicle: saline 106 % of control

COC(CC[P+](c1ccccc1)(c1ccccc1)c1ccccc1)(C(=O)c1ccccc1)c1ccccc1 (configuration not stated)
inactive: dose: 15.0 mg/kg/injection, schedule: Q01DX001 (ip), vehicle: carboxymethylcellulose (CMC) 96 % of control | dose: 30.0 mg/kg/injection, schedule: Q01DX001 (ip), vehicle: carboxymethylcellulose (CMC) 90 % of control | dose: 60.0 mg/kg/injection, schedule: Q01DX001 (ip), vehicle: carboxymethylcellulose (CMC) 89 % of control

Cc1cccc(Cl)c1NC(N)=O
inactive: dose: 100.0 mg/kg/injection, schedule: Q01DX009 (ip), vehicle: Klucel (hydroxypropylcellulose) (HPC) 102 % of control | [1] 103 % of control | dose: 200.0 mg/kg/injection, schedule: Q01DX009 (ip), vehicle: Klucel (hydroxypropylcellulose) (HPC) 102 % of control | [2] 94 % of control | dose: 400.0 mg/kg/injection, schedule: Q01DX009 (ip), vehicle: Klucel (hydroxypropylcellulose) (HPC) 97 % of control | [3] 95 % of control

O=C(CI)Nc1cccc(NC(=O)C(=O)O)c1
inactive: dose: 20.0 mg/kg/injection, schedule: Q04DX003 (ip), vehicle: Klucel (hydroxypropylcellulose) (HPC) 95 % of control | dose: 40.0 mg/kg/injection, schedule: Q04DX003 (ip), vehicle: Klucel (hydroxypropylcellulose) (HPC) 101 % of control

O=[N+]([O-])c1cc(Cl)ccc1S(=O)(=O)CC(Cl)c1ccccc1 (configuration not stated)
inactive: dose: 100.0 mg/kg/injection, schedule: Q01DX001 (ip), vehicle: acetone 104 % of control | dose: 100.0 mg/kg/injection, schedule: Q01DX009 (ip), vehicle: acetone 98 % of control | dose: 100.0 mg/kg/injection, schedule: Q04DX003 (ip), vehicle: acetone 108 % of control | dose: 200.0 mg/kg/injection, schedule: Q01DX001 (ip), vehicle: acetone 104 % of control | dose: 200.0 mg/kg/injection, schedule: Q01DX009 (ip), vehicle: acetone 87 % of control and 88 % of control | dose: 200.0 mg/kg/injection, schedule: Q04DX003 (ip), vehicle: acetone 100 % of control | dose: 400.0 mg/kg/injection, schedule: Q01DX001 (ip), vehicle: acetone 101 % of control | dose: 400.0 mg/kg/injection, schedule: Q01DX009 (ip), vehicle: acetone 106 % of control and 92 % of control | dose: 400.0 mg/kg/injection, schedule: Q04DX003 (ip), vehicle: acetone 100 % of control

Clc1cccc(NCCc2ccccc2)c1
inactive: [1] 94 % of control | [2] 94 % of control | [3] 102 % of control

O=S(=O)(Cl)c1ccc(F)cc1
inactive: dose: 100.0 mg/kg/injection, schedule: Q01DX009 (ip), vehicle: saline with Tween-80 98 % of control | dose: 200.0 mg/kg/injection, schedule: Q01DX009 (ip), vehicle: saline with Tween-80 96 % of control | dose: 400.0 mg/kg/injection, schedule: Q01DX009 (ip), vehicle: saline with Tween-80 90 % of control

Nc1cc(=O)[nH]c(=S)n1-c1ccc(Br)cc1
inactive: [4] 93 % of control | [5] 102 % of control | [6] 93 % of control | [7] 108 % of control

O=C(O)c1ccccc1-c1c2ccc(=O)c(Br)c-2oc2c(Br)c(O)ccc12
inactive: [4] 104 % of control | [5] 96 % of control | [6] 98 % of control | [7] 102 % of control

CC(=O)NN(C)C(C)=O
inactive: dose: 12.5 mg/kg/injection, schedule: Q04DX003 (ip), vehicle: saline 110 % of control | dose: 25.0 mg/kg/injection, schedule: Q04DX003 (ip), vehicle: saline 120 % of control | dose: 50.0 mg/kg/injection, schedule: Q04DX003 (ip), vehicle: saline 112 % of control | [8] 101 % of control | dose: 130.0 mg/kg/injection, schedule: Q04DX003 (ip), vehicle: saline 105 % of control | [9] 96 % of control and 120 % of control | dose: 300.0 mg/kg/injection, schedule: Q04DX003 (ip), vehicle: saline 100 % of control | [10] 106 % of control

O=C(O)C1CCCCC1C(=O)O (configuration not stated)
inactive: dose: 100.0 mg/kg/injection, schedule: Q01DX001 (ip), vehicle: Klucel (hydroxypropylcellulose) (HPC) 103 % of control | [1] 101 % of control | [8] 95 % of control | dose: 200.0 mg/kg/injection, schedule: Q01DX001 (ip), vehicle: Klucel (hydroxypropylcellulose) (HPC) 91 % of control | [2] 97 % of control | [9] 98 % of control | dose: 400.0 mg/kg/injection, schedule: Q01DX001 (ip), vehicle: Klucel (hydroxypropylcellulose) (HPC) 93 % of control | [3] 97 % of control | [10] 98 % of control

CCCCCCCC/C=C/CCCCCC1CCCC(C)N1 (configuration not stated)
inactive: dose: 6.25 mg/kg/injection, schedule: Q04DX002 (ip), vehicle: saline 96 % of control | dose: 12.5 mg/kg/injection, schedule: Q04DX002 (ip), vehicle: saline 96 % of control | dose: 25.0 mg/kg/injection, schedule: Q04DX002 (ip), vehicle: saline 111 % of control | dose: 50.0 mg/kg/injection, schedule: Q04DX002 (ip), vehicle: saline 90 % of control
